Assay results taken from patent US20260256921A1, “BIFUNCTIONAL MOLECULES TO TARGET DEGRADATION OF TUMOR NECROSIS FACTOR” (Biohaven Therapeutics Ltd., priority 2023, published 2026).

What was measured:
[1] = molecular target: T1, Recombinant human ASGPR protein (Homo sapiens, UniProt P07306); experiment: GalNAc-PAA human ASGPR1 competition binding assay; conditions: competition with GalNAc-PAA-biotin 500 ng/ml
T1 construct: purchased R&D Systems 4394-AS
T1 sequence (P07306 1-291): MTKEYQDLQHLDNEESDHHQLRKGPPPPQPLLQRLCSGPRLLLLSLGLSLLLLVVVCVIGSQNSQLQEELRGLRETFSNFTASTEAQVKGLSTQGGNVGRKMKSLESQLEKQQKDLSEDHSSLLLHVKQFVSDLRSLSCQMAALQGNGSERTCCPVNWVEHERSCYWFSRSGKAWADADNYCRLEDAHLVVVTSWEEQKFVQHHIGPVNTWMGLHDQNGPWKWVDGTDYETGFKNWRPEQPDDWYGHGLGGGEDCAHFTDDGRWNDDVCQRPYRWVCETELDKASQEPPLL
Procedure: Protocol. Recombinant human ASGPR protein (R&D Systems Catalog #4394-AS; Minneapolis, MN, USA) was reconstituted to 200 μg/ml in Assay Buffer (20 mM HEPES (TEKnova Catalog #H1030; Hollister, CA, USA), 150 mM NaCl (Promega Catalog #V4221; Madison, WI, USA), 1 mM CaCl2 (Alfa Aesar Catalog #J63122; Tewksbury, MA, USA)). Nunc-Immuno™ MicroWell™ 96 well solid plates (Sigma Catalog #M9410; Burlington, MA, USA) were coated with 300 ng of ASGPR protein per well by diluting the protein to 3 μg/ml in Assay Buffer and adding 100 μl to each well. A few wells were left without ASGPR protein for controls in which 100 μl of Assay Buffer were added. The plate was incubated overnight at 4° C. After overnight incubation, coating solution was discarded and the wells were blocked with 150 μl/well of Blocking Buffer (1% Bovine Serum Albumin (BSA) in Assay Buffer; Sigma Catalog #A3059-100G; Burlington, MA, USA) for 2 hours at 4° C. Frozen stock of GalNAc-PAA-biotin (GlycoNZ Catalog #GNZ-0031-BP, 1 mg/ml in Assay Buffer; Auckland, NZ) was thawed and diluted 1:1000 in Assay Buffer to create a 1000 ng/ml 2× working solution. Competitor compounds were reconstituted to 100 mM in DMSO. If compounds were insoluble at this concentration, they were further diluted in DMSO. Compounds were diluted 1 to 12.5 (10 μl DMSO stock diluted to 125 μl) in Assay Buffer, then 5 fold serially diluted. The DMSO concentration in the 2× working solution of the first well is 8%, for a final starting DMSO concentration of 4%. In a separate deep-well plate (NEST Catalog #503501; Woodbridge, NJ, USA), equal amounts of 1000 ng/ml GalNAc-PAA and serially diluted compounds were combined, for a final concentration of 500 ng/ml GalNAc-PAA and 4 mM compound (top concentration), assuming that the compound concentration of the DMSO stock solution was 100 mM. Plates with Blocking Buffer were removed from refrigerator and blocking solution was discarded. The wells were washed with 200 μl of Assay Buffer three times. After the last wash, plates were tapped dry on paper towels to remove excess liquid.
Next, 100 μl of GalNAc-PAA-biotin premixed with serially diluted compounds was added into each well. For control, several wells containing 500 ng/ml GalNAc-PAA-biotin were included. Plates were incubated for 2 hours at room temperature on an orbital shaker at 100 rpm. After incubation, compound solutions were discarded and each well was washed with 200 μl Assay Buffer three times. Streptavidin-HRP (R&D Systems catalogue #DY998; Minneapolis, MN, USA) was diluted 1:200 in Assay Buffer. 100 μl of the diluted Streptavidin-HRP was added to each well and incubated at room temperature for 45 minutes, protected from light. Streptavidin-HRP was then discarded and each well was washed with 200 μl of Assay Buffer three times. 3,3′,5,5′-Tetramethylbenzidine (TMB) Substrate color reagents A and B (R&D Systems catalog #DY999; Minneapolis, MN, USA) were mixed at a ratio of 1:1 and 100 μl was added to each well. After a 5 minute incubation, 50 μl of Stop Solution (R&D Systems catalog #DY994; Minneapolis, MN, USA) was added to each well. Plates were shaken for 10 seconds using the orbital shaker in the plate reader and read at 450 nm. […] Normalized data were analyzed using a nonlinear-fit of normalized data with a four-parameter sigmoidal dose-response variable slope model.

[2] = molecular target: human TNF-α (Homo sapiens, UniProt P01375); experiment: TNF-α thermal melt assay; format: binding; set-up: Amino acids 77-233 of Human TNF-α protein with an N-terminal GST tag; GST (N, cleaved yes); made in house; host or cells: Escherichia coli (BL21 NiCo); conditions: thermal melt, SYPRO Orange, Kd calculated as in Matulis et al.; read-out: TM Kd
Sequence of human TNF-α (P01375 77-233): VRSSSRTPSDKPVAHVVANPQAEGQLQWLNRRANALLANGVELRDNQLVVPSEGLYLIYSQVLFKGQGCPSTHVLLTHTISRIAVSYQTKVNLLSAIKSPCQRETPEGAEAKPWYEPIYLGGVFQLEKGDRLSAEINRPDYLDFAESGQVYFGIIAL
Procedure: Protein was purified using glutathione agarose purification columns (Pierce™, Waltham, MA, USA). Following purification, the GST tag was removed using HRV3c protease (Pierce™, Waltham, MA, USA) and the GST tag and the TNF-α were separated via ion exchange chromatography using a 20 mM HEPES pH 8.0 buffer system ramping from 0 to 1 M NaCl over 12 column volumes with 5 ml of Q Sepharose (HiScreen Q HP, Cytiva™, Marlborough, MA, USA). The final protein includes the amino acids GPLGSG at the N-terminus of the protein.
Protein was heated from 20° C. to 95° C. at one degree per minute in a Roche Opus384 qPCR machine.

SMILES	Ki [1]	Kd [2]
CCC(=O)NC1COC(COCCOCCOCCOCCn2cc(COCC(COCc3cn(CCOCCOCCOCCOCC4OCC(NC(=O)CC)C(O)C4O)nn3)(COCc3cn(CCOCCOCCOCCOCC4OCC(NC(=O)CC)C(O)C4O)nn3)NC(=O)CNC(=O)CCOCCOCCC(=O)N3CCN(Cc4ccc(-c5c[nH]c6ccncc56)c(OCCc5ccc(-c6cccc7ccncc67)cc5)c4)CC3)nn2)C(O)C1O (stereo not shown) [Compound 103]	200 nM	1000 nM
CCC(=O)NC1COC(COCCOCCOCCOCCn2cc(COCC(COCc3cn(CCOCCOCCOCCOCC4OCC(NC(=O)CC)C(O)C4O)nn3)(COCc3cn(CCOCCOCCOCCOCC4OCC(NC(=O)CC)C(O)C4O)nn3)NC(=O)CNC(=O)CCC(=O)N3CCN(Cc4ccc(-c5c[nH]c6ccncc56)c(OCCc5ccc(-c6cccc7ccncc67)cc5)c4)CC3)nn2)C(O)C1O (stereo not shown) [Compound 104]	200 nM	1000 nM
CCC(=O)NC1COC(COCCOCCOCCOCCn2cc(COCCNC(=O)CNC(=O)CCOCCOCCOCCOCCOCCOCCC(=O)N3CCN(Cc4ccc(-c5c[nH]c6ccncc56)c(OCCc5ccc(-c6cccc7ccncc67)cc5)c4)CC3)nn2)C(O)C1O (stereo not shown) [Compound 105]	600 nM	65 nM

Now from value to molecule:

Ki [1]	Kd [2]	SMILES
1100 nM	50 nM	CCC(=O)N[C@H]1CO[C@H](COCCOCCOCCOCCn2cc(COCCNC(=O)CNC(=O)CCC(=O)N3CCN(Cc4ccc(-c5c[nH]c6ccncc56)c(OCCc5ccc(-c6cccc7ccncc67)cc5)c4)CC3)nn2)[C@H](O)[C@@H]1O [Compound 106]
800 nM	55 nM	CCC(=O)N[C@H]1CO[C@H](COCCOCCOCCOCCn2cc(COCCNC(=O)CNC(=O)CCOCCOCCC(=O)N3CCN(Cc4ccc(-c5c[nH]c6ccncc56)c(OCCc5ccc(-c6cccc7ccncc67)cc5)c4)CC3)nn2)[C@H](O)[C@@H]1O [Compound 107]
